T/C data for 17 compounds are collected here from PubChem BioAssay AID330 (DTP/NCI, 2004).

Several values for one entry are separate records, joined by “and”; a condition that tells them apart may be missing. Identical values can stand only once. Inconclusive results and toxic doses are left out.

For the test, the system named is P388 leukemia ip, CD2F1 mice, survival T/C. The test can be described thus: NCI In Vivo Anticancer Drug Screen. Data for tumor model P388 Leukemia (intraperitoneal) in CD2F1 (CDF1) mice. The note with it: endpoint: median survival time, higher = longer survival. Put shortly: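 Mice carrying the transplanted tumor received test compound or vehicle. Survival was recorded in each group, and the value is the treated-group measurement divided by that of the vehicle-treated control group.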

Where [1] appears, read: dose: 400.0 mg/kg/injection, schedule: Q01DX009 (ip), vehicle: saline.
The mark [2] stands for this setting: dose: 50.0 mg/kg/injection, schedule: Q01DX009 (ip), vehicle: saline.
Where [3] appears, read: dose: 100.0 mg/kg/injection, schedule: Q01DX009 (ip), vehicle: saline.
Setting [4] is: dose: 200.0 mg/kg/injection, schedule: Q01DX009 (ip), vehicle: saline.
The mark [5] stands for this setting: dose: 50.0 mg/kg/injection, schedule: Q01DX005 (ip), vehicle: Klucel (hydroxypropylcellulose) (HPC).
[6] abbreviates: dose: 100.0 mg/kg/injection, schedule: Q01DX005 (ip), vehicle: Klucel (hydroxypropylcellulose) (HPC).
The mark [7] stands for this setting: dose: 50.0 mg/kg/injection, schedule: Q01DX009 (ip), vehicle: saline with Tween-80.
Setting [8] is: dose: 100.0 mg/kg/injection, schedule: Q01DX009 (ip), vehicle: saline with Tween-80.
Where [9] appears, read: dose: 6.25 mg/kg/injection, schedule: Q01DX009 (ip), vehicle: saline with Tween-80.
Where [10] appears, read: dose: 12.5 mg/kg/injection, schedule: Q01DX009 (ip), vehicle: saline with Tween-80.
Where [11] appears, read: dose: 25.0 mg/kg/injection, schedule: Q01DX009 (ip), vehicle: saline with Tween-80.
The mark [12] stands for this setting: dose: 200.0 mg/kg/injection, schedule: Q01DX009 (ip), vehicle: saline with Tween-80.
The mark [13] stands for this setting: dose: 50.0 mg/kg/injection, schedule: Q01DX005 (ip), vehicle: saline with Tween-80.
Setting [14] is: dose: 100.0 mg/kg/injection, schedule: Q01DX005 (ip), vehicle: saline with Tween-80.

For `CCC(C)C1NC(=O)C(NC(=O)c2c3nc4c(C(=O)NC5C(=O)NC(C(C)CC)C(=O)N6CCCC6C(=O)N(C)CC(=O)N(C)C(C(C)C)C(=O)OC5C)cc(N)c(C)c4oc-3c(C)c(=O)c2N)C(C)OC(=O)C(C(C)C)N(C)C(=O)CN(C)C(=O)C2CCCN2C1=O` (centres undefined), the T/C (dose: 0.1 mg/kg/injection, schedule: Q01DX009 (ip), vehicle: Klucel (hydroxypropylcellulose) (HPC)) is 247 % of control; the T/C (dose: 0.2 mg/kg/injection, schedule: Q01DX009 (ip), vehicle: Klucel (hydroxypropylcellulose) (HPC)) was 230 % of control; the T/C (dose: 100.0 micrograms/kg/injection, schedule: Q01DX009 (ip), vehicle: water) is 152 % of control; the T/C (dose: 150.0 micrograms/kg/injection, schedule: Q01DX009 (ip), vehicle: water) was 166 % of control; the T/C (dose: 225.0 micrograms/kg/injection, schedule: Q01DX009 (ip), vehicle: water) was 177 % of control.
Take `CNC(=O)Oc1c(C)[nH]ccc1=O`: the T/C under setting [1] is 107 % of control.
Regarding `COP(=O)(CI)OC`, the T/C is 102 % of control under setting [2], 99 % of control under setting [3] and 107 % of control under setting [4].
With `CCCCCCCCCCCCS(=O)(=O)CC(Br)C(=O)c1ccco1` (centres undefined), the T/C (dose: 100.0 mg/kg/injection, schedule: Q04DX002 (ip), vehicle: saline) is 100 % of control; the T/C (dose: 200.0 mg/kg/injection, schedule: Q04DX002 (ip), vehicle: saline) is 100 % of control; the T/C (dose: 400.0 mg/kg/injection, schedule: Q04DX002 (ip), vehicle: saline) is 100 % of control.
As to `COc1ccc(S(N)(=O)=O)cc1C(=O)NCCN1CCN(c2cccc(C(F)(F)F)c2)CC1`, the T/C is, setting by setting: under setting [5], 99 % of control; under setting [6], 95 % of control.
For `CC1CN1P1(N2CC2C)=NP(N2CC2C)(N2CC2C)=NP(N2CC2C)(N2CC2C)=N1` (centres undefined), the T/C was 100 % of control (dose: 12.5 mg/kg/injection, schedule: Q04DX003 (ip), vehicle: saline); 154 % of control (dose: 25.0 mg/kg/injection, schedule: Q01DX009 (ip), vehicle: saline); 112 % of control (dose: 25.0 mg/kg/injection, schedule: Q04DX003 (ip), vehicle: saline); 154 % of control (dose: 33.0 mg/kg/injection, schedule: Q01DX009 (ip), vehicle: saline with Tween-80); 170 % of control and 193 % of control under setting [7]; 172 % of control under setting [2]. The T/C runs as follows: (dose: 66.0 mg/kg/injection, schedule: Q04DX003 (ip), vehicle: saline) 154 % of control; (dose: 75.0 mg/kg/injection, schedule: Q01DX009 (ip), vehicle: saline with Tween-80) 218 % of control; under setting [8], 102 % of control; under setting [3], 90 % of control; (dose: 100.0 mg/kg/injection, schedule: Q04DX003 (ip), vehicle: saline) 181 % of control.
On to `NC(=O)CC(NC(c1ccccc1)(c1ccccc1)c1ccccc1)C(=O)ON1C(=O)CCC1=O` (centres undefined), for which the T/C is 104 % of control (dose: 25.0 mg/kg/injection, schedule: Q01DX001 (ip), vehicle: saline with Tween-80); 100 % of control (dose: 50.0 mg/kg/injection, schedule: Q01DX001 (ip), vehicle: saline with Tween-80); 100 % of control (dose: 100.0 mg/kg/injection, schedule: Q01DX001 (ip), vehicle: saline with Tween-80).
As to `CCP(=O)(CC)CC`, the T/C by setting is: (dose: 25.0 mg/kg/injection, schedule: Q01DX005 (ip), vehicle: saline) 98 % of control; (dose: 50.0 mg/kg/injection, schedule: Q01DX005 (ip), vehicle: saline) 105 % of control; (dose: 100.0 mg/kg/injection, schedule: Q01DX005 (ip), vehicle: saline) 99 % of control; (dose: 200.0 mg/kg/injection, schedule: Q01DX005 (ip), vehicle: saline) 99 % of control; (dose: 400.0 mg/kg/injection, schedule: Q01DX005 (ip), vehicle: saline) 99 % of control.
On to `CCOC(=O)C1=C(C)OC(N)=C(C#N)C12C(=O)N(C)C(=O)c1ccccc12` (centres undefined), for which the T/C under setting [5] was 101 % of control; the T/C under setting [6] is 103 % of control; the T/C (dose: 200.0 mg/kg/injection, schedule: Q01DX005 (ip), vehicle: Klucel (hydroxypropylcellulose) (HPC)) was 96 % of control.
On to `COC1C(OC(=O)c2ccc(C)[nH]2)C(O)C(Oc2ccc3c(O)c(NC(=O)c4c[nH]c(C(=O)Nc5c(O)c6ccc(OC7OC(C)(C)C(OC)C(OC(=O)c8ccc(C)[nH]8)C7O)c(C)c6oc5=O)c4C)c(=O)oc3c2C)OC1(C)C` (centres undefined), for which the T/C is 110 % of control and 97 % of control under setting [9]; 100 % of control and 122 % of control under setting [10]; 96 % of control under setting [11]; 103 % of control under setting [7]; 118 % of control under setting [2]; 90 % of control under setting [8]. Besides, the T/C by setting is: under setting [3], 113 % of control; (dose: 100.0 mg/kg/injection, schedule: Q04DX003 (ip), vehicle: saline with Tween-80) 109 % of control; under setting [12], 109 % of control; under setting [4], 102 % of control; (dose: 200.0 mg/kg/injection, schedule: Q04DX003 (ip), vehicle: saline with Tween-80) 100 % of control; (dose: 400.0 mg/kg/injection, schedule: Q01DX009 (ip), vehicle: saline with Tween-80) 100 % of control. In addition, the T/C under setting [1] is 117 % of control and the T/C (dose: 400.0 mg/kg/injection, schedule: Q04DX003 (ip), vehicle: saline with Tween-80) is 109 % of control.
In the case of `C=C(Cl)C(O)CNCCCC` (centres undefined), the T/C is 110 % of control under setting [13] and 110 % of control under setting [14].
Regarding `NNC(=O)C1CCCC1`, the T/C under setting [9] is 113 % of control, the T/C under setting [10] was 104 % of control, the T/C under setting [11] was 100 % of control and the T/C under setting [7] was 113 % of control.
Turning to `CC(=O)N1CN2CN(C1)CN(C(C)=O)C2`, the T/C reads like this: (dose: 100.0 mg/kg/injection, schedule: Q01DX001 (ip), vehicle: saline) 105 % of control; (dose: 200.0 mg/kg/injection, schedule: Q01DX001 (ip), vehicle: saline) 104 % of control; (dose: 400.0 mg/kg/injection, schedule: Q01DX001 (ip), vehicle: saline) 107 % of control.
On to `CC(=O)N1OC2(C)c3ccccc3C1(C)c1ccccc12`, for which the T/C is, setting by setting: under setting [7], 100 % of control; under setting [8], 94 % of control; under setting [12], 92 % of control.
`O=C1CSc2nc3ccc(Cl)cc3c(=O)n21`: the T/C is, setting by setting: under setting [13], 93 % of control; under setting [14], 101 % of control; (dose: 200.0 mg/kg/injection, schedule: Q01DX005 (ip), vehicle: saline with Tween-80) 104 % of control.
`Cc1[nH]c(=O)[nH]c(=O)c1/C=C/C(=O)NC(CO)CS(C)=O` (centres undefined): the T/C is 108 % of control (dose: 0.07 mg/kg/injection, schedule: Q01DX009 (ip), vehicle: water); 106 % of control and 100 % of control (dose: 0.15 mg/kg/injection, schedule: Q01DX009 (ip), vehicle: water); 92 % of control and 110 % of control (dose: 0.3 mg/kg/injection, schedule: Q01DX009 (ip), vehicle: water); 98 % of control and 110 % of control (dose: 0.6 mg/kg/injection, schedule: Q01DX009 (ip), vehicle: water); 112 % of control (dose: 1.2 mg/kg/injection, schedule: Q01DX009 (ip), vehicle: water); 118 % of control (dose: 2.0 mg/kg/injection, schedule: Q01DX009 (ip), vehicle: water). Also, the T/C runs as follows: (dose: 4.0 mg/kg/injection, schedule: Q01DX009 (ip), vehicle: water) 120 % of control; (dose: 16.0 mg/kg/injection, schedule: Q01DX009 (ip), vehicle: water) 111 % of control; (dose: 40.0 mg/kg/injection, schedule: Q01DX009 (ip), vehicle: water) 102 % of control; (dose: 64.0 mg/kg/injection, schedule: Q01DX009 (ip), vehicle: water) 116 % of control and 123 % of control; (dose: 128.0 mg/kg/injection, schedule: Q01DX009 (ip), vehicle: water) 124 % of control.
With `CC(C)NCC(O)c1ccccc1Cl` (centres undefined), the T/C by setting is: (dose: 12.5 mg/kg/injection, schedule: Q01DX005 (ip), vehicle: saline with Tween-80) 100 % of control; (dose: 25.0 mg/kg/injection, schedule: Q01DX005 (ip), vehicle: saline with Tween-80) 104 % of control; under setting [13], 100 % of control and 90 % of control.
